From patent US7138361B2, “Herbicidal heterocycles” (E. I. du Pont de Nemours and Company, priority 2000, dated 2006)

Key:
Assay type in all cases: in vivo
[1] = tested on: velvetleaf (Abutilon theophrasti); test: Test B preemergence
Procedure, shortened: (§1)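 Post-treatment, species sat 13–15 days under greenhouse conditions before visual scoring against controls, 0 (no effect) through 100 (complete control). Application preemergence to sown seeds or postemergence at 1- to 4-leaf stage, using a non-phytotoxic solvent/surfactant formulation.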

[2] = tested on: giant foxtail (Setaria faberii); test: Test B preemergence
Procedure, shortened: as §1

[3] = tested on: crabgrass (Digitaria sanguinalis); test: Test B preemergence
Procedure, shortened: as §1

[4] = tested on: morning glory (Ipomoea hederacea); test: Test B preemergence
Procedure, shortened: as §1

[5] = tested on: Surinam grass (Brachiaria decumbens); test: Test B preemergence
Procedure, shortened: as §1

corn (Zea mays) [6] = test: Test B preemergence
Procedure, shortened: as §1

[7] = tested on: barnyardgrass (Echinochloa crus-galli); test: Test B preemergence
Procedure, shortened: as §1

[8] = tested on: lambsquarters (Chenopodium album); test: Test B preemergence
Procedure, shortened: as §1

[9] = tested on: pigweed (Amaranthus retroflexus); test: Test B preemergence
Procedure, shortened: as §1

rice (Oryza saliva) [10] = test: Test B preemergence
Procedure, shortened: as §1

[11] = tested on: cocklebur (Xanthium strumarium); test: Test B preemergence
Procedure, shortened: as §1

[12] = tested on: velvetleaf (Abutilon theophrasti); test: Test B postemergence
Procedure, shortened: as §1

[13] = tested on: giant foxtail (Setaria faberii); test: Test B postemergence
Procedure, shortened: as §1

[14] = tested on: crabgrass (Digitaria sanguinalis); test: Test B postemergence
Procedure, shortened: as §1

[15] = tested on: blackgrass (Alopecurus myosuroides); test: Test B postemergence
Procedure, shortened: as §1

[16] = tested on: morning glory (Ipomoea hederacea); test: Test B postemergence
Procedure, shortened: as §1

[17] = tested on: Surinam grass (Brachiaria decumbens); test: Test B postemergence
Procedure, shortened: as §1

corn (Zea mays) [18] = test: Test B postemergence
Procedure, shortened: as §1

[19] = tested on: barnyardgrass (Echinochloa crus-galli); test: Test B postemergence
Procedure, shortened: as §1

[20] = tested on: lambsquarters (Chenopodium album); test: Test B postemergence
Procedure, shortened: as §1

[21] = tested on: pigweed (Amaranthus retroflexus); test: Test B postemergence
Procedure, shortened: as §1

[22] = tested on: wheat (Triticum aestivum); test: Test B postemergence
Procedure, shortened: as §1

[23] = tested on: cocklebur (Xanthium strumarium); test: Test B postemergence
Procedure, shortened: as §1

wild oat (Avena fatua) = test: Test B postemergence
Procedure, shortened: as §1

[24] = tested on: duck salad (Heteranthera limosa); test: Test C flooded paddy test; details: for Ducksalad plant response rating: Flooded Paddy, scale 0 to 100, 0 no effect, 100 complete control; for Plant response rating, Ducksalad: flooded paddy test, scale 0 to 100 (0 no effect, 100 complete control)
Procedure, shortened: (§2)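 2-leaf-stage plants, flooded paddy; treated; greenhouse 12–14 days; compared with controls by eye; rated 0–100 (0 none, 100 complete control).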

[25] = tested on: barnyardgrass (Echinochloa crus-galli); test: Test C flooded paddy test; details: for Barnyardgrass plant response rating: Flooded Paddy, scale 0 to 100, 0 no effect, 100 complete control; for Plant response rating, Barnyardgrass: flooded paddy test, scale 0 to 100 (0 no effect, 100 complete control)
Procedure, shortened: as §2

rice (Oryza saliva) [26] = test: Test C flooded paddy test; details: for Rice plant response rating: Flooded Paddy, scale 0 to 100, 0 no effect, 100 complete control; for Plant response rating, Rice: flooded paddy test, scale 0 to 100 (0 no effect, 100 complete control)
Procedure, shortened: as §2

[27] = tested on: smallflower flatsedge (Cyperus difformis); test: Test C flooded paddy test; details: for Flatsedge plant response rating: Flooded Paddy, scale 0 to 100, 0 no effect, 100 complete control; for Plant response rating, Flatsedge: flooded paddy test, scale 0 to 100 (0 no effect, 100 complete control)
Procedure, shortened: as §2

[28] = Preemergence, Rate 500 g/ha, scale 0 to 100, 0 no effect, 100 complete control
[29] = preemergence, Rate 125 g/ha, scale of 0 to 100 where 0 is no effect and 100 is complete control, 13 to 15 days
[30] = Rate 125 g/ha, scale 0 to 100, 0 no effect, 100 complete control
[31] = Rate 500 g/ha, scale 0 to 100, 0 is no effect, 100 is complete control, 13 to 15 days

CCCCC(CCCC)c1ccn(C2SCN(c3cccc(C(F)(F)F)c3)C2=O)n1 (stereo not shown) [Compound 116]
40: Plant response rating, Crabgrass [14, 31]
60: Plant response rating, Blackgrass [15, 31]
70: Plant response rating, Lambsquarters [20, 30] | Plant response rating, Pigweed [21, 31]
90: Plant response rating, Lambsquarters [20, 31]
50: Plant response rating, Pigweed [21, 30] | Plant response rating, Cocklebur [23, 31] | Plant response rating, Wild Oat (wild oat (Avena fatua); [31])
30: Plant response rating, Velvetleaf [12, 31] | Plant response rating, Morningglory [16, 30] | Plant response rating, Morningglory [16, 31] | Plant response rating, Cocklebur [23, 30] | Plant response rating, Wild Oat (wild oat (Avena fatua); [30])
20: Plant response rating, Velvetleaf [12, 30] | Plant response rating, Crabgrass [14, 30] | Plant response rating, Surinam grass [17, 31] | Plant response rating, Corn (corn (Zea mays) [18]; [30]) | Plant response rating, Corn (corn (Zea mays) [18]; [31]) | Plant response rating, Barnyardgrass [19, 31] | Plant response rating, Wheat [22, 30] | Plant response rating, Wheat [22, 31]
0: Plant response rating, Velvetleaf [1, 28] | Plant response rating, Velvetleaf [1, 29] | Plant response rating, Foxtail, Giant [2, 28] | Plant response rating, Foxtail, Giant [2, 29] | Plant response rating, Crabgrass [3, 28] | Plant response rating, Crabgrass [3, 29] | Plant response rating, Morningglory [4, 28] | Plant response rating, Morningglory [4, 29] | Plant response rating, Surinam grass [5, 28] | Plant response rating, Surinam grass [5, 29] | Plant response rating, Corn (corn (Zea mays) [6]; [28]) | Plant response rating, Corn (corn (Zea mays) [6]; [29]) | Plant response rating, Barnyardgrass [7, 28] | Plant response rating, Barnyardgrass [7, 29] | Plant response rating, Lambsquarters [8, 28] | Plant response rating, Lambsquarters [8, 29] | Plant response rating, Pigweed [9, 28] | Plant response rating, Pigweed [9, 29] | Plant response rating, Rice (rice (Oryza saliva) [10]; [28]) | Plant response rating, Rice (rice (Oryza saliva) [10]; [29]) | Plant response rating, Cocklebur [11, 28] | Plant response rating, Cocklebur [11, 29] | Plant response rating, Foxtail, Giant [13, 30] | Plant response rating, Foxtail, Giant [13, 31] | Plant response rating, Blackgrass [15, 30] | Plant response rating, Surinam grass [17, 30] | Plant response rating, Barnyardgrass [19, 30] | Ducksalad plant response rating ([24]; Rate 250 g/ha) | Ducksalad plant response rating ([24]; Rate 500 g/ha) | Plant response rating, Ducksalad ([24]; Rate 62 g/ha) | Plant response rating, Ducksalad ([24]; Rate 125 g/ha) | Barnyardgrass plant response rating ([25]; Rate 250 g/ha) | Barnyardgrass plant response rating ([25]; Rate 500 g/ha) | Plant response rating, Barnyardgrass ([25]; Rate 62 g/ha) | Plant response rating, Barnyardgrass ([25]; Rate 125 g/ha) | Rice plant response rating (rice (Oryza saliva) [26]; Rate 250 g/ha) | Rice plant response rating (rice (Oryza saliva) [26]; Rate 500 g/ha) | Plant response rating, Rice (rice (Oryza saliva) [26]; Rate 62 g/ha) | Plant response rating, Rice (rice (Oryza saliva) [26]; Rate 125 g/ha) | Flatsedge plant response rating ([27]; Rate 250 g/ha) | Flatsedge plant response rating ([27]; Rate 500 g/ha) | Plant response rating, Flatsedge ([27]; Rate 62 g/ha) | Plant response rating, Flatsedge ([27]; Rate 125 g/ha)
